From US20020049193A1, “N-linked sulfonamides of heterocyclic thioesters” (GPI NIL HOLDINGS, INC., priority 1996, published 2002)
Where two headings read alike, the source gives them in different places.

What was measured:
[1] = test system: chick dorsal root ganglia; experiment: Chick dorsal root ganglion cultures and neurite outgrowth; type: cell-based; settings: Gallus gallus, 48 h; read-out: ED50 (the source's name)
Method: Dorsal root ganglia were dissected from chick embryos of ten day gestation. Whole ganglion explants were cultured on thin layer Matrigel-coated 12 well plates with Liebovitz L15 plus high glucose media supplemented with 2 mM glutamine and 10% fetal calf serum, and also containing 10 μM cytosine β-D arabinofuranoside (Ara C) at 37° C. in an environment containing 5% CO2. Twenty-four hours later, the DRGs were treated with various immunophilin ligands. Forty-eight hours after drug treatment, the ganglia were visualized under phase contrast or Hoffman Modulation contrast with a Zeiss Axiovert inverted microscope. Photomicrographs of the explants were made, and neurite outgrowth was quantitated. Neurites longer than the DRG diameter were counted as positive, with total number of neurites quantitated per each experimental condition. Three to four DRGs are cultured per well, and each treatment was performed in duplicate.
The data for these experiments for representative compounds are presented in Table II(c) under the column “ED50”.

[2] = target: FKBP12 (Homo sapiens, UniProt P62942); experiment: Ki test procedure: inhibition of peptidyl-prolyl isomerase (rotamase) activity, chymotrypsin-coupled assay; type: biochemical; settings: apparent Ki
FKBP12, sequence (P62942 whole entry, species assumed): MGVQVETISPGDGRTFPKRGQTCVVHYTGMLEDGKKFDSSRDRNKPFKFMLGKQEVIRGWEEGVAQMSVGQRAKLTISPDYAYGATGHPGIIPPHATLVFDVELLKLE
Excerpt: The inhibition of the prolyl peptidyl cis-trans isomerase activity of FKBP may be measured as an indicator of this affinity.
The compounds of the invention are shown to inhibit peptidyl-prolyl isomerase (rotamase) activity and can be evaluated by known methods described in the literature (Harding, et al., Nature, 1989, 341:758-760; Holt et al. J. Am. Chem. Soc., 115: 9923-9938). The cis-trans isomerization of an alanine-proline bond in a model substrate, N-succinyl-Ala-Ala-Pro-Phe-p-nitroanilide, is monitored spectrophotometrically in a chymotrypsin-coupled assay, which releases para-nitroanilide from the trans form of the substrate. The inhibition of this reaction caused by the addition of different concentrations of inhibitor is determined, and the data is analyzed as a change in first-order rate constant as a function of inhibitor concentration to yield the apparent Ki values.
In a plastic cuvette are added […] of ice cold assay buffer (25 mM HEPES, pH 7.8, 100 mM NaCl), 10 mL of FKBP (2.5 mM in 10 mM Tris-Cl pH 7.5, 100 mM NaCl, 1 mM dithiothreitol), 25 mL of chymotrypsin (50 mg/ml in 1 mM HCl) and […] of test compound at various concentrations in dimethyl sulfoxide. The reaction is initiated by the addition of 5 mL of substrate (succinyl-Ala-Phe-Pro-Phe-para-nitroanilide, 5 mg/mL in 2.35 mM LiCl in trifluoroethanol).
The absorbance at 390 nm versus time is monitored for 90 seconds using a spectrophotometer and the rate constants are determined from the absorbance versus time data files.
The data for these experiments for representative compounds are presented in Tables II(a) and II(b) under the column “Ki”.

[3] = test system: TH-positive dopaminergic neurons in the striatum; experiment: MPTP model of Parkinson's Disease; type: in vivo; settings: CD1 mice, MPTP 30 mg/kg i.p. 5 days, test compound 4 mg/kg s.c. 10 days, striatum at 18 days
Method: MPTP lesioning of dopaminergic neurons in mice is used as an animal model of Parkinson's Disease. Four week old male CD1 white mice are dosed i.p. with 30 mg/kg of MPTP for 5 days. Test compounds (4 mg/kg), or vehicle, are administered s.c. along with the MPTP for 5 days, as well as for an additional 5 days following cessation of MPTP treatment. At 18 days following MPTP treatment, the animals are sacrificed and the striata dissected and perfusion-fixed.
Immunostaining is performed on saggital and coronal brain sections using anti-tyrosine hydroxylase […] to quantitate survival and recovery of dopaminergic neurons. In animals treated with MPTP and vehicle, a substantial loss of functional dopaminergic terminals is observed as compared to non-lesioned animals. Lesioned animals receiving test compounds show a significant recovery of TH-stained dopaminergic neurons. This model presents quantitation for the recovery of TH-positive dopaminergic neurons in the striatum of animals receiving the compounds of the present invention. Data for representative control and lesioned animals not receiving the test drugs is also presented against the data from the animals receiving the compounds of the present invention in Table III.

| Ki ([2]; numerical, read-out: Ki) [µM] | Ki ([2]; ranked potency, read-out: Kl) [µM] | SMILES | EC50 [1] [µM] | % Recovery Tyrosine Hydroxylase [3] [%] |
| --- | --- | --- | --- | --- |
|  |  | O=C(SCCC(c1ccccc1)c1ccccc1)C1CCCN1S(=O)(=O)c1ccccc1 (stereo not shown) [Compound 7] | 0.001 to 0.05 |  |
|  |  | O=C(SCCc1ccccc1)C1CCCN1S(=O)(=O)c1ccccc1 (stereo not shown) [Compound 1] | < 0.001 |  |
|  |  | O=C(SCCCCc1ccccc1)C1CCCCN1S(=O)(=O)C1CCCCC1 (stereo not shown) [Compound 14] | 0.001 to 0.05 |  |
|  |  | O=C(SCCC(c1ccccc1)c1ccccc1)C1CCCN1S(=O)(=O)Cc1ccccc1 (stereo not shown) [Compound 8] | < 0.001 |  |
|  |  | O=C(SC(CCCc1ccccc1)CCCc1ccccc1)C1CCCCN1S(=O)(=O)c1ccccc1 (stereo not shown) [Compound 15] | < 0.001 |  |
| 0.73 | > 0.5 | CCc1ccc(S(=O)(=O)N2CCC[C@H]2C(=O)SCCc2ccccc2)cc1 [Compound 21, Phenethyl (2S)-1-[(4-ethylphenyl)sulfonyl]-2-pyrrolidinecarbothioate] |  |  |
| 0.659 | > 0.5 | COc1ccc(CCCSC(=O)[C@@H]2CCCCN2S(=O)(=O)c2ccc(C)cc2)cc1 (racemic) [Compound 26, 3-(4-Methoxyphenyl)propyl 1-[(4-methylphenyl)sulfonyl]-2-piperidinecarbothioate] |  |  |
|  |  | COc1cc(S(=O)(=O)N2CCCCC2C(=O)SCCCCc2ccccc2)cc(OC)c1OC (stereo not shown) [Compound 13] | < 0.001 |  |
|  |  | O=C(SCCCCc1ccccc1)C1CCCCN1S(=O)(=O)c1ccccc1 (stereo not shown) [Compound 10] | 0.001 to 0.05 |  |
| 0.204 | 0.201 to 0.5 | COc1ccc(CCCSC(=O)[C@@H]2CCCN2S(=O)(=O)c2ccccc2)cc1 [Compound 4, 3-(4-Methoxyphenyl)propyl (2S)-1-(phenylsulfonyl)-2-pyrrolidinecarbothioate] | 0.051 to 0.2 | 42 |
| 0.196 | 0.051 to 0.2 | COc1ccc(CCCSC(=O)C2CCCCN2S(=O)(=O)c2ccccc2)cc1 (racemic) [Compound 28, 3-(4-Methoxyphenyl)propyl 1-(phenylsulfonyl)-2-piperidinecarbothioate] |  |  |
| 0.022 | 0.001 to 0.05 | COc1ccc(CCCSC(=O)[C@@H]2CCCN2S(=O)(=O)Cc2ccccc2)cc1 [Compound 5, 3-(4-Methoxyphenyl)propyl (2S)-1-(benzylsulfonyl)-2-pyrrolidinecarbothioate] | 0.001 to 0.05 |  |
|  |  | Cc1ccc(S(=O)(=O)N2CCCCC2C(=O)SCCCCc2ccccc2)cc1 (stereo not shown) [Compound 12] | 0.001 to 0.05 |  |
|  |  | O=C(SC(CCCc1ccccc1)CCCc1ccccc1)C1CCCCN1S(=O)(=O)Cc1ccccc1 (stereo not shown) [Compound 16] | 0.051 to 0.2 |  |
| 0.082 |  | COc1ccc(CCCSC(=O)C2CCCCN2S(=O)(=O)Cc2ccccc2)cc1 (racemic) [Compound 27, 3-(4-Methoxyphenyl)propyl 1-(benzylsulfonyl)-2-piperidinecarbothioate] |  |  |
|  |  | O=C(SCCCCc1ccccc1)C1CCCCN1S(=O)(=O)Cc1ccccc1 (stereo not shown) [Compound 11] | 0.001 to 0.05 |  |
|  |  | O=C(SCCc1ccccc1)C1CCCN1S(=O)(=O)Cc1ccccc1 (stereo not shown) [Compound 2] | 0.001 to 0.05 |  |
| 0.145 | 0.051 to 0.2 | COc1ccc(CCCSC(=O)[C@@H]2CCCN2S(=O)(=O)c2ccc(C)cc2)cc1 [Compound 6, 3-(4-Methoxyphenyl)propyl (2S)-1-[(4-methylphenyl)sulfonyl]-2-pyrrolidinecarbothioate] | 0.051 to 0.2 | 37 |
| 0.671 | > 0.5 | O=C(SCCCc1cccc2ccccc12)[C@@H]1CCCN1S(=O)(=O)Cc1ccccc1 [Compound 24, 3-(1-Naphthyl)propyl (2S)-1-(benzylsulfonyl)-2-pyrrolidinecarbothioate] |  | 40 |
| 0.069 | 0.051 to 0.2 | Cc1ccc(S(=O)(=O)N2CCCCC2C(=O)SCCCc2ccc(C(F)(F)F)cc2)cc1 (racemic) [Compound 29, 3-[4-(Trifluoromethyl)phenyl]propyl 1-[(4-methylphenyl)sulfonyl]-2-piperidinecarbothioate] |  |  |
|  |  | Cc1ccc(S(=O)(=O)N2CCCC2C(=O)SCCc2ccccc2)cc1 (stereo not shown) [Compound 3] | 0.001 to 0.05 |  |

| SMILES | Ki ([2]; numerical, read-out: Ki) [µM] | Ki ([2]; ranked potency, read-out: Kl) [µM] | EC50 [1] [µM] | % Recovery Tyrosine Hydroxylase [3] [%] |
| --- | --- | --- | --- | --- |
| O=C(SCCCc1ccccc1)[C@@H]1CCCN1S(=O)(=O)Cc1ccccc1 [Compound 23, 3-Phenylpropyl (2S)-1-(benzylsulfonyl)-2-pyrrolidinecarbothioate] |  | 0.051 to 0.2 |  | 80 |
